Assay results: US4596710A, “Gallium chloride as a new anti-cancerous drug” (priority 1981, dated 1986)

Experiments:
[1] = Clinical and biological tolerance in patients; details: Adriamycine 50 mg + 5-fluoro-uracil 900 mg + Endoxan 900 mg; before gallium chloride; alcoholic patient
Method: Mrs. […] Post-operative chemotherapy (5-fluoro-uracil and endoxan) was then effected up to April 1979. At that time, […] underwent a second operation with excision of the remaining cervix and omentectomy. […] Cobalt therapy was then carried out from Nov. 5th, 1979 to Feb. 5th, 1980 on the abdomen, pelvis and diaphragm cupolas, then further chemotherapy (hexamethylmelamine) from August to October 1980. […] Treatment by gallium chloride started on Nov. 1 st, 1980 at the posology of 300 mg per day per os in three doses of 100 mg. […] An echotomograph on Dec. […] A third echotomograph was made on Jan. […] On Mar.
The treatment by gallium chloride was started on May 15th, 1981, at the posology of 600 mg/24 hours up to Sept. 20th, 1981, in association with a heparinotherapy at mini-doses. This heparinotherapy had been prescribed to prevent a phlebitis or pulmonary embolism following the surgical operation of April 1981 and had not been interrupted in order not to provoke the phenomenon of tumoral flare-up. [Calciparin (heparin calcium salt) 0.2 ml, 3 times per day by sub-cutaneous route]. […] On Sept. […] This was the case. . . […] 29th, 1981. […] Up to Nov. […] It was from Sept.
HOT... […] , was operated on May 14th, 1981 for an adenocarcinoma of the colon. […] An almost total colectomy was carried out, leaving 20 cm of sigmoid and a resection of the small bowel over a length of 15 cm. […] On Oct. […] An exploratory laparotomy was made on Nov. […] 7th, 1982.
Gallium chloride therapy was started on Sept.

[2] = Anghileri 1973; cited from earlier work
[3] = cited from earlier work

| Compound | pancytopenia after combination chemotherapy, 2nd patient [1] | further results |
| --- | --- | --- |
| O=c1[nH]cc(F)c(=O)[nH]1 [5-fluoro-uracil, reference compound] | a pancytopenia which would persist for several months |  |
| COc1cccc2c1C(=O)c1c(O)c3c(c(O)c1C2=O)C[C@@](O)(C(=O)CO)C[C@@H]3O[C@H]1C[C@H](N)[C@H](O)[C@H](C)O1 [Adriamycine, reference compound] | a pancytopenia which would persist for several months |  |
| gallium |  | displacement of magnesium from the cell [2]: capable of displacing magnesium from the cell |
| O=[N+]([O-])[O-].O=[N+]([O-])[O-].O=[N+]([O-])[O-].[Ga+3] [gallium nitrate] |  | renal toxicity ([3]; human therapeutics): excessive renal toxicity; results of tests in human therapeutics ([3]; in vivo): minor results |
| O=P1(N(CCCl)CCCl)NCCCO1 (stereo not drawn) [Endoxan, reference compound] | a pancytopenia which would persist for several months |  |
